{"source": "patent US20200165312A1", "about": "“COSMETIC COMPOSITION FOR IMPROVING SKIN CONDITIONS COMPRISING FUSION PROTEIN INCLUDING SKIN PENETRATION ENHANCING PEPTIDE” (LG HOUSEHOLD & HEALTH CARE LTD., priority 2017, published 2020)", "key": {"[1]": {"test_system": "dermal fibroblasts", "experiment": "Collagen production in dermal fibroblasts (ELISA)", "format": "cell-based, human", "conditions": "10 ng/mL, serum-free DMEM, two days; control = 100", "method": "(§1) Specifically, dermal fibroblasts were inoculated onto a 24-well plate and cultured for 24 hours to obtain cultures having a saturation degree of 70 to 80%. The cultures were washed with PBS and cultured in a serum-free DMEM medium including 10 ng/mL T-PDGFa or PDGFa for two days. A supernatant was obtained therefrom and the amount of collagen produced and released in the culture solution was quantitively analyzed using an ELISA kit (R&D Systems) (Table 4)."}, "[2]": {"test_system": "dermal fibroblasts", "experiment": "Hyaluronic acid (HA) production in dermal fibroblasts (ELISA)", "format": "cell-based, human", "conditions": "10 ng/mL T-PDGFa or PDGFa, two days; control = 100", "method": "as §1, with “hyaluronic acid (HA)” for “collagen”, “5).” for “4).”\nSpecifically, dermal fibroblasts were inoculated onto a 24-well plate and cultured for 24 hours to obtain cultures having a saturation degree of 70 to 80%. […] A supernatant was obtained therefrom and the amount of hyaluronic acid (HA) produced and released in the culture solution was quantitively analyzed using an ELISA kit (R&D Systems) (Table 9)."}, "[3]": {"test_system": "dermal papilla cells", "experiment": "Hair follicle stem cell proliferation: dermal papilla cells, Cell Counter Kit-8", "format": "cell-based", "conditions": "for Proliferation (%): control = 100", "method": "(§2) Specifically, dermal papilla cells were inoculated onto a 96-well plate and cultured for 24 hours to obtain cultures at a density of 6,000 cells per well. The cultures were washed with PBS and cultured in a serum-free DMEM medium for one day. The cells were washed with PBS again and cultured in a serum-free DMEM medium supplemented with 1 ng/mL T-PDGFa or PDGFa for one day. The cultures were obtained therefrom and a difference between proliferated amounts of cells was quantitively analyzed using the Cell Counter Kit-8 (Dojindo). Here, dermal papilla cells cultured in a serum-free DMEM medium without T-PDGFa or PDGFa were used as a control (Table 6).\n(§3) Specifically, dermal papilla cells were inoculated onto a 96-well plate and cultured for 24 hours to obtain cultures at a density of 6,000 cells per well. The cultures were washed with PBS and cultured in a serum-free DMEM medium for one day. […] The cultures were obtained therefrom and a difference between proliferated amounts of cells was quantitively analyzed using the Cell Counter Kit-8 (Dojindo).\nas §2, with “T-IGF-1” for “T-PDGFa”, “IGF-1” for “PDGFa”, “15).” for “6).”\nas §2, with “10” for “1”, “T-KGF” for “T-PDGFa”, “KGF” for “PDGFa”, “19).” for “6).”\nas §2, with “10” for “1”, “T-Tβ4” for “T-PDGFa”, “Tβ4” for “PDGFa”, “23).” for “6).”"}, "[4]": {"test_system": "human umbilical vein endothelial cells", "experiment": "Endothelial cell proliferation, Cell Counter Kit-8", "format": "cell-based", "conditions": "for Proliferation (%): 100 ng/mL T-Tβ4 or Tβ4, serum-free M199, one day, control = 100", "method": "as §3, with “human umbilical vein endothelial” for “dermal papilla”, “5,000” for “6,000”, “M199” for “DMEM”, “16 hours.” for “one day.”\nSpecifically, human umbilical vein endothelial cells were inoculated onto a 96-well plate and cultured for 24 hours to obtain cultures at a density of 5,000 cells per well. The cultures were washed with PBS and cultured in a serum-free M199 medium for 16 hours. The cells were washed with PBS again and cultured in a serum-free M199 medium supplemented with 100 ng/mL T-Tβ4 or Tβ4 for one day. The cultures were obtained therefrom and a difference between proliferated amounts of cells was quantitively analyzed using the Cell Counter Kit-8 (Dojindo). Here, human umbilical vein endothelial cells cultured in a serum-free M199 medium without T-Tβ4 or Tβ4 were used as a control (Table 22)."}, "[5]": {"test_system": "skin keratinocytes", "experiment": "Keratinocyte growth (skin barrier strengthening), Cell Counter Kit-8", "format": "cell-based", "conditions": "100 ng/mL T-IGF-1 or IGF-1, one day; control = 100", "method": "(§4) Specifically, skin keratinocytes were cultured in a 96-well plate for one day to obtain cultures at a density of 6,000 cells per well. The cultures were washed with PBS and cultured in a serum-free DMEM medium for one day. The cells were washed with PBS again and cultured in a serum-free DMEM medium supplemented with 100 ng/mL T-IGF-1 or IGF-1 for one day. The cultures were obtained therefrom and a difference between proliferated amounts of cells was quantitively analyzed using the Cell Counter Kit-8 (Dojindo). Here, skin keratinocytes cultured in a serum-free DMEM medium without T-IGF-1 or IGF-1 were used as a control (Table 14).\nSpecifically, skin keratinocytes were cultured in a 96-well plate for 24 hours to obtain cultures at a density of 6,000 cells per well.\nas §4, with “The” for “Specifically, skin keratinocytes were cultured in a 96-well plate for one day to obtain cultures at a density of 6,000 cells per well. The”, “T-KGF” for “T-IGF-1”, “KGF” for “IGF-1”, “18).” for “14).”"}}, "data": [{"substance": "PDGFa: platelet-derived growth factor subunit a having an amino acid sequence of SEQ ID NO: 35", "values": [{"measurement": "Production (%) of collagen", "setting": "[1]", "value": "264 ± 17", "unit": "%"}, {"measurement": "Production (%) of hyaluronic acid (HA)", "setting": "[2]", "value": "897 ± 30", "unit": "%"}, {"measurement": "Proliferation (%)", "setting": "[3]; 1 ng/mL T-PDGFa or PDGFa, one day", "value": "1030 ± 19", "unit": "%"}]}, {"substance": "Tβ4: thymosin beta 4 having an amino acid sequence of SEQ ID NO: 47", "values": [{"measurement": "Proliferation (%)", "setting": "[3]; 10 ng/mL T-Tβ4 or Tβ4, one day", "value": "260 ± 20", "unit": "%"}, {"measurement": "Proliferation (%)", "setting": "[4]", "value": "180 ± 8", "unit": "%"}]}, {"substance": "IGF-1: insulin-like growth factor-1 having an amino acid sequence of SEQ ID NO: 41", "values": [{"measurement": "Proliferation (%)", "setting": "[3]; 1 ng/mL T-IGF-1 or IGF-1, one day", "value": "440 ± 45", "unit": "%"}, {"measurement": "Production (%) (keratinocyte growth)", "setting": "[5]", "value": "250 ± 20", "unit": "%"}]}, {"substance": "T-Tβ4: SEQ ID NO: 1 peptide C-terminal linked to N-terminal of Tβ4 via GG linker (NGSLNTHLAPILGGSDKPDMAEIEKFDKSKLKKTETQEKNPLPSKETIEQEKQAGES; Synthetic Fusion protein of T-T beta 4)", "values": [{"measurement": "Proliferation (%)", "setting": "[3]; 10 ng/mL T-Tβ4 or Tβ4, one day", "value": "220 ± 16", "unit": "%"}, {"measurement": "cell proliferation effect compared with the unfused protein", "setting": "[3]; dermal papilla cells", "value": "same level"}, {"measurement": "Proliferation (%)", "setting": "[4]", "value": "165 ± 17", "unit": "%"}, {"measurement": "cell proliferation effect compared with the unfused protein", "setting": "[4]; human umbilical vein endothelial cells, 100 ng/mL", "value": "same level"}]}]}
